# Data taken from PubChem BioAssay AID1250 (SRMLSC, 2008).
# Active and inactive are the calls of the source.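 How the source made its calls: active means inhibition of at least 30% at one or more tested concentrations; inactive means inhibition below 30% at every dose.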
# Test: inhibitors of Bluetongue virus cytopathic effect, confirmation, arbovirus, BSR cells (AID 1250)
# Details: BSR cells, Bluetongue virus CPE, ATP luminescence, 72 h; at 20 µM (top of the series)
row,Structure (SMILES),CPE inhibition
1,O=c1/c(=C/c2ccc(O)cc2)sc2n1CCCN=2,1.41% (inactive)
2,COc1ccccc1N1CCN(Cc2ccc(OC)c3ccccc23)CC1,11.1% (inactive)
3,O=C(CN1CCCCCC1)N/N=C/c1cccs1,-0.49% (inactive)
4,c1ccc(-c2csc3ncnc(NCCCN4CCOCC4)c23)cc1,4.19% (inactive)
5,COc1ccc2ccc(O)c(CN3CC=C(c4ccccc4)CC3)c2c1,14.6% (inactive)
6,COc1ccc(F)cc1C(=O)C1CCCN(C(=O)CSc2ccccn2)C1 (configuration not stated),17.6% (inactive)
7,O=C(N/N=C/c1c(O)n(CCc2ccccc2)c(=O)[nH]c1=O)c1ccncc1,7.83% (inactive)
8,O=C(CSc1nc2nn(-c3ccccc3)c(=O)c-2c2n1CCCCC2)NCCc1ccccc1,10.8% (inactive)
9,CCc1nn2cc(C(=O)c3ccccc3O)cnc2c1-c1ccc(F)cc1,14.2% (inactive)
10,O=C(Nc1ccc(OC(F)(F)F)cc1)c1[nH]ncc1[N+](=O)[O-],25.3% (inactive)
11,O=C(Nc1scc(-c2ccccc2)c1C(=O)O)c1ccco1,10.9% (inactive)
12,Clc1cccc(-c2cc3nc4c(c(NCc5ccco5)n3n2)CCCC4)c1,10.7% (inactive)
13,O=C(O)c1cnc(-c2ccccc2)nc1Sc1ccc(Cl)cc1,15.2% (inactive)
14,CN(C)/N=C/c1ccc(P(c2ccc(/C=N/N(C)C)o2)c2ccc(/C=N/N(C)C)o2)o1,10.4% (inactive)
15,CN1CCN(c2ccc(/C=C3\C(=O)NC(=S)N(c4cccc(Br)c4)C3=O)o2)CC1,14.7% (inactive)
16,COc1ccc(-c2noc(-c3cc(C)cc(C)c3)n2)cc1OC,10% (inactive)
17,Cc1ccc(S(=O)(=O)N2CCN(Cc3cc(C(C)C)ccc3O)CC2)cc1,15.9% (inactive)
18,CC1=Nc2ccccc2/C1=C/c1c(N)n2c(S(=O)(=O)C(C)C)nsc2nc1=O,19% (inactive)
19,O=C1CC(c2ccc(Br)cc2)NC(c2ccc(Br)cc2)C1c1ccccc1 (configuration not stated),7.99% (inactive)
20,O=C(Nc1ccn(Cc2ccccc2)n1)c1n[nH]c([N+](=O)[O-])c1Cl,14% (inactive)
21,COc1ccc2c(C)cc(Sc3nnnn3-c3ccccc3)nc2c1,20.9% (inactive)
22,O=C(NNC(=O)c1cccs1)c1ccc([N+](=O)[O-])cc1,4.62% (inactive)
23,CCc1ccc(C(=O)Nc2ccc(S(=O)(=O)Nc3nc(C)cc(C)n3)cc2)o1,24.5% (inactive)
24,O=C1N=c2ccccc2=C1c1sc(Nc2ccc(O)cc2)nc1O,14.8% (inactive)

row,Structure (SMILES),CPE inhibition
1,COc1ccc(C(=O)Nc2cc(Cl)ccc2C(=O)O)cc1,17.7% (inactive)
2,Cc1ccc(NC2c3ncccc3C(=O)N2C2CCCCC2)cc1C (configuration not stated),12.7% (inactive)
3,CCOC(=O)C1(Cc2cccc(OC)c2)CCN(Cc2cccc(OC)c2O)CC1,24.8% (inactive)
4,CCCCCc1nnc(NC(=O)C2COc3ccccc3O2)s1 (configuration not stated),17.9% (inactive)
5,COC(=O)c1c(SCc2ccc(C#N)cc2)nc(=O)[nH]c1C,4.66% (inactive)
6,O=C(O)c1cc(N/N=C/c2ccc(OCc3ccccc3)cc2)ccc1Cl,19.7% (inactive)
7,CCc1ccc(S(=O)(=O)c2ccc(-n3nc(C)cc3N)cc2)cc1,6.14% (inactive)
8,O=C(O)c1ccccc1CSc1ccccn1,2.46% (inactive)
9,CC(C)(O[C@@H]1O[C@H](CO)[C@@H](O)[C@H](O)[C@H]1O)[C@H]1Cc2cc3ccc(=O)oc3cc2O1,0.22% (inactive)
10,COc1ccccc1C(=O)NCC1CCN(c2ccc(S(=O)(=O)N3CCOCC3)cc2)CC1,6.04% (inactive)
11,NC(=O)c1cc([N+](=O)[O-])ccc1NCc1cccnc1,3.11% (inactive)
12,O=C(CSCC(=O)N1CCCCC1)OCC(=O)c1c[nH]c2ccccc12,-2.4% (inactive)
13,Cc1[nH]nc2c1-c1nc3ccccc3nc1C(C)(C)C2,15.7% (inactive)
14,Cc1nnc2sc(SCc3cccc(Cl)c3)nn2c1=O,14.2% (inactive)
15,CCOC(=O)c1ccc(N2CCN(c3ccccc3F)CC2)c(NC(=O)Nc2ccccc2)c1,19.7% (inactive)
16,COCCn1c(-c2ccc(Cl)cc2)cnc1SCC(=O)NCc1cccs1,18.9% (inactive)
17,COc1ccc2nc(N3C(=O)CC(Cc4cc(C)cc(C)c4)C3=O)sc2c1 (configuration not stated),13.6% (inactive)
18,Cc1csc(NC(=O)CN2C(=O)C3CC=CCC3C2=O)n1 (configuration not stated),1.87% (inactive)
19,CC(C)(C)c1ccc(C(=O)NC(=S)NCC2CCCO2)cc1 (configuration not stated),3.96% (inactive)
20,Cc1ccc(O)c(-c2cc(C(=O)Nc3ccc(S(=O)(=O)Nc4nc(C)cc(C)n4)cc3)[nH]n2)c1,21.8% (inactive)
21,O=C(O)c1ccccc1Sc1c([N+](=O)[O-])cc(C(F)(F)F)cc1[N+](=O)[O-],9.2% (inactive)
22,Cc1[nH]c2ccccc2c1C1=CCNCC1,3.08% (inactive)
23,O=c1c(-c2ccccc2)c[nH]n1-c1cccc([N+](=O)[O-])c1,14.9% (inactive)
